Structures can show the parent of a compound that is named as a salt.
Target: T1, human A3AR (Homo sapiens, UniProt P0DMS8)
T1 construct: expressed in transfected cells
T1 sequence (P0DMS8 1-318): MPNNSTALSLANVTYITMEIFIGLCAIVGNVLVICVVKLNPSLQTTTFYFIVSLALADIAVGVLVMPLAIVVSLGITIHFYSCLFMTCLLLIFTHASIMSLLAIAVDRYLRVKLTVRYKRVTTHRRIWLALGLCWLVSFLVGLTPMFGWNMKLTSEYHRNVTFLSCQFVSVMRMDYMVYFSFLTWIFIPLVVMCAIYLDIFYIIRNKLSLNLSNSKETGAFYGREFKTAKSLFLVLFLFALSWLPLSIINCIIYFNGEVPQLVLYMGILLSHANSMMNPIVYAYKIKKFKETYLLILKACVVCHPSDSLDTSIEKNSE
Assay: LOPAC library primary screen: single concentration (10 μM) inhibition of 25 nM CA200645 binding, PHERAstar FS
Conditions: not given

| SMILES | % 25 nM CA200645 binding | hit in LOPAC primary screen (inhibited the binding of CA200645 by >40%) |
| --- | --- | --- |
| CN(Cc1cnc2nc(N)nc(N)c2n1)c1ccc(C(=O)N[C@@H](CCC(=O)O)C(=O)O)cc1.O [Methotrexate hydrate] | 100.1 ± 8.9% | – |
| Nn1nnc2ccccc21 [1-Aminobenzotriazole] | 83.5 ± 18.8% | – |
| CCN1CCC[C@H]1CNC(=O)c1cc(S(N)(=O)=O)ccc1OC [(-)-Sulpiride] | 103.0 ± 8.9% | – |
| CC1(C)NC(=O)N(c2ccc([N+](=O)[O-])c(C(F)(F)F)c2)C1=O [Nilutamide] | 98.7 ± 10.0% | – |
| NC(Cc1cc(O)c(O)cc1O)C(=O)O (racemic) [6-Hydroxy-DL-DOPA] | 69.7 ± 9.9% | – |
| [N-]=[N+]=Nc1ccc(C(=O)CSC[C@H](NC(=O)CC[C@H](N)C(=O)O)C(=O)NCC(=O)O)cc1 [S-(p-Azidophenacyl)glutathione] | 82.4 ± 8.6% | – |
| O=C(CCNNC(=O)c1ccncc1)NCc1ccccc1 [Nialamide] | 96.8 ± 7.4% | – |
| NNCCc1ccccc1 [Phenelzine sulfate] | 99.4 ± 7.6% | – |
| N.N.N.N.N.N.N.N.N.N.N.N.N.N.[Cl-].[Cl-].[Cl-].[Cl-].[Cl-].[Cl-].[O-2].[O-2].[Ru+3].[Ru+3].[Ru+4] [Ruthenium red] | 95.4 ± 2.3% | – |
| Cl.NCCCCC(=O)O [5-Aminovaleric acid hydrochloride] | 97.9 ± 5.1% | – |
| N[C@@H](Cc1ccc(O)c(O)c1)C(=O)O [L-3,4-Dihydroxyphenylalanine] | 99.1 ± 9.5% | – |
| CNCCc1c[nH]c2ccc(O)cc12.O=C(O)C(=O)O | 111.6 ± 33.8% | – |
| CCNC(=O)[C@H]1O[C@@H](n2cnc3c(N)nc(NCCc4ccc(CCC(=O)O)cc4)nc32)[C@H](O)[C@@H]1O [CGS 21680, reference compound] | – | not identified as hits |
| C=C1C[C@@]23CC[C@H]4[C@@](C)(CCC[C@@]4(C)C(=O)O)[C@@H]2CC[C@]1(O)C3 [Steviol] | 95.9 ± 19.9% | – |
| CC(C)c1c(C(=O)Nc2ccccc2)c(-c2ccccc2)c(-c2ccc(F)cc2)n1CC[C@@H](O)C[C@@H](O)CC(=O)O [Atorvastatin calcium salt trihydrate] | 97.7 ± 2.2% | – |
| C[C@](N)(CCP(=O)(O)O)C(=O)O.Cl [(S)-MAP4 hydrochloride] | 89.0 ± 15.4% | – |
| O=C(O)c1cccnc1Nc1cccc(C(F)(F)F)c1 [Niflumic acid] | 113.3 ± 19.3% | – |
| N[C@@H](CC(=O)O)C(=O)O [L-Aspartic acid] | 99.3 ± 3.7% | – |
| CN(C)CCC(c1ccc(Br)cc1)c1ccccn1.O=C(O)/C=C\C(=O)O (racemic) [(±)-Brompheniramine maleate] | 101.5 ± 4.3% | – |
| Cl.Clc1cc(I)cc(Cl)c1NC1=NCCN1 [p-Iodoclonidine hydrochloride] | 77.2 ± 42.2% | – |
| CC(C)C(=O)Nc1ccc([N+](=O)[O-])c(C(F)(F)F)c1 [Flutamide] | 84.4 ± 23.0% | – |
| O=C(O)/C=C\C(=O)O.O=[N+]([O-])c1ccc2nc(N3CCNCC3)ccc2c1 [Quipazine, 6-nitro-, maleate] | 100.0 ± 4.7% | – |
| CCn1c(=O)[nH]c2cc(Cl)c(Cl)cc21 [DCEBIO] | 87.8 ± 8.9% | – |
| NC/C=C\C(=O)O [cis-4-Aminocrotonic acid] | 103.0 ± 10.1% | – |
| N[C@H](C(=O)O)c1cc(O)no1 (racemic) [(±)-Ibotenic acid] | 93.1 ± 9.6% | – |

| SMILES | % 25 nM CA200645 binding | hit in LOPAC primary screen (inhibited the binding of CA200645 by >40%) |
| --- | --- | --- |
| CCC(=O)N1CCN(C(=O)c2ccccc2)CC1 [DM 235] | 105.1 ± 10.7% | – |
| Cl.N[C@@H](CCC(=O)O)C(=O)O [L-Glutamic acid hydrochloride] | 113.0 ± 19.3% | – |
| Cc1ccc(S(=O)(=O)NC(=O)NN2CCCCCC2)cc1 [Tolazamide] | 109.2 ± 9.0% | – |
| NC(=S)c1ccc[n+]([C@@H]2O[C@@H](COP(=O)([O-])OP(=O)(O)OC[C@H]3O[C@@H](n4cnc5c(N)ncnc54)C(OP(=O)([O-])O)[C@H]3O)C(O)C2O)c1.[Na+] (stereo partly drawn) [Thio-NADP sodium] | 101.4 ± 10.4% | – |
| CC(=O)Oc1ccccc1C(=O)O [Acetylsalicylic acid] | 102.5 ± 9.1% | – |
| CCOC(=O)C1=C(O)C(=O)N(Cc2ccccc2)C1 [EBPC] | 98.2 ± 13.5% | – |
| NC(=O)c1cc[n+](CC2=C(C(=O)[O-])N3C(=O)[C@@H](NC(=O)C(c4ccccc4)S(=O)(=O)[O-])[C@H]3SC2)cc1.O.[Na+] (stereo partly drawn) [Cefsulodin sodium salt hydrate] | 100.8 ± 6.6% | – |
| N[C@@H](Cc1ccc(O)c(I)c1)C(=O)O [3-Iodo-L-tyrosine] | 96.8 ± 8.8% | – |
| COc1ccc2[nH]cc(CCN)c2c1.Cl [O-Methylserotonin hydrochloride] | 107.2 ± 4.7% | – |
| CN(C)CCCN1c2ccccc2Sc2ccc(C(F)(F)F)cc21 [Triflupromazine hydrochloride] | 99.0 ± 16.0% | – |
| C[n+]1cc2c3c(ccc2c2ccc4cc5c(cc4c21)OCO5)OCO3 [Sanguinarine chloride] | 38.9 ± 20.6% | – |
| CCCC(C(=O)OCCN(CC)CC)(c1ccccc1)c1ccccc1.Cl [SKF-525A hydrochloride] | 95.3 ± 9.0% | – |
| CCCNCC(O)COc1ccccc1C(=O)CCc1ccccc1 (stereo not drawn) [Propafenone hydrochloride] | 111.3 ± 10.1% | – |
| O=C1CC2(CCCC2)CC(=O)N1CCCCN1CCN(c2ncccn2)CC1 [Buspirone hydrochloride] | 102.9 ± 6.0% | – |
| CC(=O)Nc1nnc(S(N)(=O)=O)s1 [Acetazolamide] | 92.4 ± 4.0% | – |
| Nc1nc(Nc2ccccc2)nc2c1ncn2[C@@H]1O[C@H](CO)[C@@H](O)[C@H]1O [CV1808, 2-phenylaminoadenosine, reference compound] | 55.3 ± 19.9% | – |
| COc1cc2nc(N3CCCN(C)CC3)nc(NC3CCN(Cc4ccccc4)CC3)c2cc1OC [BIX 01294 trihydrochloride hydrate] | 97.9 ± 21.2% | – |
| CC(C)(C(=O)O)c1ccc(C(O)CCCN2CCC(C(O)(c3ccccc3)c3ccccc3)CC2)cc1 (stereo not drawn) [Fexofenadine hydrochloride] | 93.9 ± 3.6% | – |
| N[C@H](C(=O)O)[C@H]1C[C@@H]1C(=O)O | 107.7 ± 15.6% | – |
| NC(=O)CI [Iodoacetamide] | 101.9 ± 8.2% | – |
| Cc1cccc(-c2[nH]c(C(C)(C)C)nc2-c2ccc3nccnc3c2)n1 [SB-525334] | 76.3 ± 9.5% | – |
| CCCN(CCC)CCc1cccc2c1CC(=O)N2 [Ropinirole hydrochloride] | 107.5 ± 15.4% | – |
| O=c1ccn([C@@H]2O[C@H](COP(=O)([O-])OP(=O)([O-])O)[C@@H](O)[C@H]2O)c(=O)[nH]1.[Na+].[Na+] [Uridine 5'-diphosphate sodium] | 100.6 ± 5.7% | – |
| O=c1ccc2c(OCCCCc3ccccc3)c3ccoc3cc2o1 [Psora-4] | 66.4 ± 9.2% | – |

Same assay, conditions: 10 μM compound, 25 nM CA200645, A3AR CHO cells

| SMILES | hit in LOPAC primary screen (inhibited the binding of CA200645 by >40%) |
| --- | --- |
| Nc1nc(Nc2ccccc2)nc2c1ncn2[C@@H]1O[C@H](CO)[C@@H](O)[C@H]1O [CV1808, 2-phenylaminoadenosine, reference compound] | identified |

Same assay, conditions: % of 25 nM CA200645 binding in the presence of 10 μM compound, LOPAC full screen, A3AR CHO cells

| SMILES | % Total CA200645 binding |
| --- | --- |
| Nc1nc(Nc2ccccc2)nc2c1ncn2[C@@H]1O[C@H](CO)[C@@H](O)[C@H]1O [CV1808, 2-phenylaminoadenosine, reference compound] | 53.3 ± 19.9% |

Same assay, conditions: % of control wells (1% DMSO and 25 nM CA200645); compounds at 10 µM; whole live cells expressing the A3AR; mean ± SD, three experiments in duplicate

| SMILES | % 25 nM CA200645 binding |
| --- | --- |
| O=C(O)c1cc(=O)c2ccccc2[nH]1 [Kynurenic acid] | 83.5 ± 10.7% |
| Oc1ccc(/C=C/c2cc(O)cc(O)c2)cc1 [Resveratrol] | 100.3 ± 16.3% |
| O=C(O)C1=CCCNC1 [Guvacine hydrochloride] | 99.3 ± 14.1% |
